Tests used:
KAI3 = assay: drug sensitivity score (viability inhibition); higher = more sensitive; settings: 72 h; IL2 2.5 ng/ml
Description: (§1)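 NK-cell leukemia/lymphoma cell lines (3,000 cells/well) were cultured with IL2 2.5 ng/ml in 384-well drug plates (5-8 concentrations over a 10,000-fold range) for 72 h at 37 C; viability was read with CellTiter-Glo. DSS is a normalised area under the dose-response curve; the experiment was repeated twice.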

KHYG-1 = assay: as above; settings: 72 h; IL2 2.5 ng/ml
Description: as §1

NK-92 = assay: as above; settings: 72 h; IL2 2.5 ng/ml
Description: as §1

NK-YS = assay: as above; settings: 72 h; IL2 2.5 ng/ml
Description: as §1

NKL = assay: as above; settings: 72 h; IL2 2.5 ng/ml
Description: as §1

SNK6 = assay: as above; settings: 72 h; IL2 2.5 ng/ml
Description: as §1

YT = assay: as above; settings: 72 h; IL2 2.5 ng/ml
Description: as §1

HEK293-SIE STAT3 WT = assay: drug sensitivity score (inhibition of STAT3 luciferase reporter); higher = stronger inhibition; settings: 6 h; STAT3: WT; IL6 100 ng/ml
Description: (§2)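 HEK293 cells with a STAT3-inducible (SIE) luciferase reporter, stably expressing WT STAT3 (IL6 100 ng/ml) or Y640F STAT3 (no IL6), were incubated 6 h with drugs in 384-well plates (5-8 concentrations over a 10,000-fold range); luciferase was read with ONE-Glo. DSS is a normalised area under the dose-response curve; values are the mean of two experiments.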

HEK293-SIE STAT3 Y640F = assay: as above; settings: 6 h; IL6 0 ng/ml
Description: as §2

Compound | drug sensitivity score (KAI3) [DSS] | drug sensitivity score (KHYG-1) [DSS] | drug sensitivity score (NK-92) [DSS] | drug sensitivity score (NK-YS) [DSS] | drug sensitivity score (NKL) [DSS] | drug sensitivity score (SNK6) [DSS] | drug sensitivity score (YT) [DSS] | drug sensitivity score (HEK293-SIE STAT3 WT) [DSS] | drug sensitivity score (HEK293-SIE STAT3 Y640F) [DSS]
Cc1ccc(C(=O)Nc2ccc(CN3CCN(C)CC3)c(C(F)(F)F)c2)cc1C#Cc1cnc2cccnn12 [Ponatinib] | 3.2 | 3.2 | 1.39 | 2.28 | 4.93 | 0 | 4.26 | 2.95 | 2.8
CC(=O)c1c(C)c2cnc(Nc3ccc(N4CCNCC4)cn3)nc2n(C2CCCC2)c1=O [Palbociclib] | 3.02 | 15.5 | 5.78 | 6.84 | 9.52 | 0 | 5.11 | 4.85 | 2.8
COc1ccc(-c2ccc3c(N4CCOC[C@@H]4C)nc(N4CCOC[C@@H]4C)nc3n2)cc1CO [AZD8055] | 14.1 | 16.7 | 16.3 | 19.6 | 23.3 | 14.9 | 16.7 | 20.2 | 18.6
C=CCn1c(=O)c2cnc(Nc3ccc(N4CCN(C)CC4)cc3)nc2n1-c1cccc(C(C)(C)O)n1 [MK1775] | 19.9 | 24.5 | 23 | 20.5 | 22.5 | 19.7 | 19.8 | 9.88 | 8.87
COc1cc(Nc2ncc(F)c(Nc3ccc4c(n3)N(COP(=O)(O)O)C(=O)C(C)(C)O4)n2)cc(OC)c1OC [Fostamatinib] | 7.41 | 1.22 | 3.43 | 1.04 | 4.15 | 3.04 | 2.81 | 9.75 | 2.93
CC1(COc2ccc3c(c2)ncn3-c2ccc3cccc(N4CCC(N)CC4)c3n2)COC1 [Crenolanib] | 5.4 | 7.73 | 9.79 | 7.55 | 10.3 | 9.96 | 7.98 | 3.05 | 4.25
COc1cc2c(cc1-c1c(C)noc1C)ncc1[nH]c(=O)n([C@H](C)c3ccccn3)c12 [I-BET151] | 4.86 | 13.3 | 1.34 | 12.2 | 8.89 | 11.6 | 7.05 | 11.5 | 4.4
C[C@H]1C[C@@H]2[C@H]([C@@H](O)C[C@@]3(C)[C@H]2CC[C@]3(O)C(=O)CO)[C@@]2(C)C=CC(=O)C=C12 [Methylprednisolone] | 1.27 | 10.5 | 0 | 3.19 | 16 | 0.065 | 8.81 | 0 | 0.4
CO[C@H]1C[C@@H]2CC[C@@H](C)[C@@](O)(O2)C(=O)C(=O)N2CCCC[C@H]2C(=O)O[C@H]([C@H](C)C[C@@H]2CC[C@@H](OC(=O)C(C)(CO)CO)[C@H](OC)C2)CC(=O)[C@H](C)/C=C(\C)[C@@H](O)[C@@H](OC)C(=O)[C@H](C)C[C@H](C)/C=C/C=C/C=C/1C [Temsirolimus] | 7.48 | 10.1 | 4.18 | 18.6 | 20.6 | 11.6 | 14 | 8.55 | 11.8
CO[C@H]1C[C@@H]2CC[C@@H](C)[C@@](O)(O2)C(=O)C(=O)N2CCCC[C@H]2C(=O)O[C@H]([C@H](C)C[C@@H]2CC[C@@H](OCCO)[C@H](OC)C2)CC(=O)[C@H](C)/C=C(\C)[C@@H](O)[C@@H](OC)C(=O)[C@H](C)C[C@H](C)/C=C/C=C/C=C/1C [Everolimus] | 6.6 | 5.9 | 1.19 | 16.8 | 17.4 | 12.2 | 11.8 | 3.15 | 8.9
Cc1sc2c(c1C)C(c1ccc(Cl)cc1)=N[C@@H](CC(=O)OC(C)(C)C)c1nnc(C)n1-2 [(+)-JQ1] | 4.93 | 18.9 | 3.16 | 15.9 | 13.7 | 12.4 | 11.1 | 16.6 | 0
O=C(NC[C@H](O)CO)c1ccncc1Nc1ccc(I)cc1F [Pimasertib] | 4.56 | 15.8 | 0 | 2.47 | 11 | 0.301 | 0.0567 | 3.4 | 2.03
COc1cc(Nc2c(C#N)cnc3cc(OCCCN4CCN(C)CC4)c(OC)cc23)c(Cl)cc1Cl [Bosutinib] | 6.47 | 7.49 | 7.49 | 5.25 | 5.37 | 5.08 | 5.38 | 0.775 | 8.4
CCNC(=O)c1noc(-c2cc(C(C)C)c(O)cc2O)c1-c1ccc(CN2CCOCC2)cc1 [Luminespib] | 25.6 | 24 | 27.4 | 26.9 | 29.1 | 19.6 | 18.6 | 16.3 | 12.8
CN(Cc1cnc2nc(N)nc(N)c2n1)c1ccc(C(=O)N[C@@H](CCC(=O)O)C(=O)O)cc1 [Methotrexate] | 12.8 | 15.1 | 12.2 | 18.8 | 8.04 | 21.2 | 15.8 | 1.4 | 0.233
CNC(=O)c1ccccc1Sc1ccc2c(/C=C/c3ccccn3)n[nH]c2c1 [Axitinib] | 10.9 | 10.9 | 6.72 | 10.2 | 8.05 | 8.94 | 8.91 | 0 | 0
CN[C@@H]1C[C@H]2O[C@@](C)([C@@H]1OC)n1c3ccccc3c3c4c(c5c6ccccc6n2c5c31)C(=O)N[C@H]4O [UCN-01] | 29.8 | 30.7 | 27.3 | 28.7 | 26.9 | 30.1 | 20.5 | 22.9 | 20.3
CC(=O)OC[C@H]1O[C@@H]([S-])[C@H](OC(C)=O)[C@@H](OC(C)=O)[C@@H]1OC(C)=O.CCP(CC)CC.[Au+] [Auranofin] | 2.72 | 5.84 | 4.86 | 8.08 | 8.44 | 8.28 | 8.63 | 5.9 | 2.05
CNC(=O)c1cc(Oc2ccc(NC(=O)Nc3ccc(Cl)c(C(F)(F)F)c3)c(F)c2)ccn1 [Regorafenib] | 2.25 | 6.89 | 8.97 | 7.25 | 5.14 | 10.1 | 8.71 | 6.65 | 5.5
C[C@@]1(C(=O)Nc2ccc(F)nc2)CCCN1c1nc(Nc2cc(C3CC3)n[nH]2)c2cccn2n1 | 4.45 | 7.86 | 5.6 | 11.1 | 2.75 | 10.9 | 5.74 | 1.95 | 8.23
